Test results from paper PMC8158701, “Characterization of the CYP3A4 Enzyme Inhibition Potential of Selected Flavonoids” (Molecules, 2021).
Read-outs that look alike come from different tables or passages of the source.

Columns and labels:
CYP3A4 [1] = target: T1, CYP3A4 (Homo sapiens, UniProt P08684); test: CYP3A4 inhibition and inactivation kinetics, nifedipine oxidation as marker reaction
Procedure: Enzyme incubations were performed in triplicate, with mechanical stirring in a water bath at 37 °C. Aliquots of flavonoids with a final concentration of 1 μM were dissolved in methanol, transferred to glass tubes, and evaporated to dryness, except in control samples without the inhibitor (flavonoid). After the evaporation of the solvent, an incubation mixture was prepared to a volume of 100 μL, consisting of 5 pmol CYP3A4 enzyme, 50 mM potassium phosphate buffer (pH 7.4), and ultrapure water. An NADPH generating system composed of 0.1 M G6P: 10 mg/mL NADP^+: 1000 IU/mL G6PDH = 50:25:1 (v/v/v) was prepared immediately before use. This generating system contains glucose-6-phosphate dehydrogenase that regenerates NADP^+ into NADPH, keeping the concentration of the cytochrome P450 coenzyme (NADPH) constant in the incubation. The addition of the generating system (15% of the volume in the final incubation, v/v) started the reaction. Nifedipine was used to test out the residual enzyme activity at a final concentration of 200 μM. The reaction was stopped using 1 mL of ice-cold 1% solution of formic acid in dichloromethane. The samples were mixed, then centrifuged for 10 min on 1900g (Rotofix 32, Westfalia, Germany). After centrifugation, two layers were formed (water and organic layer). 850 µL of the organic layer was transferred to cuvettes and evaporated. The analyte was then dissolved in 30 µL of methanol. An Agilent Zorbax SB C18 column (4.6 × 250 mm, 3 μm, Agilent Technologies, Santa Clara, CA, USA) was used to analyze the samples by HPLC. The mobile phase was composed of methanol and water in a ratio of 64:36. The analysis was isocratic. The flow was set at 1.0 mL min^−1. The injection volume was set at 10 µL. Nifedipine was used as a marker substrate. The reaction observed was the oxidation of nifedipine. Chromatograms were recorded at 254 nm. The duration of the analysis was set at 25 min. The retention time of nifedipine is 7.1 min and that of oxidized nifedipine is 10.8 min [42]. […] For all the flavonoids, half maximal inhibitory concentration (IC50), constant of inhibition (Ki), constant of inactivation speed (kinact), and inactivation efficacy (kinact/Ki) were determined.
A one-sided t-test would be used to assess the statistical significance in the differences between samples and controls, based on measurements of residual activity. A nonlinear equation was used to calculate the IC50 value. The Michaelis-Menten equation was used to determine the inactivation constant and the inactivation rate of the inhibitor. Statistical processing and graph preparations were done using Program R (The R Project for Statistical Computing, Vienna, Austria) and Microsoft Excel (Microsoft, Redmond, WA, USA).

CYP3A4 [2] = target: T1, CYP3A4; design: purchased Thermo Fisher Scientific (Waltham, MA, USA); host or cells: baculosomes (baculovirus-infected insect cell microsomes); settings: cited from earlier work; for inhibition of CYP3A4: 1 µM concentration, testosterone as marker substrate; for IC50 / Ki / kinact / kinact/Ki: testosterone (TSN) as marker substrate
[3] = design: method as in PMID 7937537; settings: healthy volunteers; cited from earlier work
[4] = design: method as in PMID 17093006; settings: rats, chrysin 20–100 µM; cited from earlier work
CYP3A4 [5] = target: T1, CYP3A4; test: Pseudo-irreversible inhibition assay (incubation, dialysis with or without potassium hexacyanoferrate, testosterone marker); assay type: biochemical; design: purchased Thermo Fisher Scientific (Waltham, MA, USA); host or cells: baculosomes (baculovirus-infected insect cell microsomes); settings: after incubation and dialysis (Figure 4)
Procedure: The aim of this assay is to test out the formation of covalent complexes with ferrous iron (Fe^2+), by assessing a recovery of enzyme activity after dialysis with or without the addition of an oxidant. Three types of experiments were performed for each flavonoid: incubation mixture without flavonoids (control), incubation mixture with flavonoid, and incubation mixture with flavonoid to which oxidant was added after incubation. Each incubation with the inhibitor was performed for 30 min using the same experimental settings as described above (Section 4.2.1). After incubation, the samples were transferred to dialysis cartridges. Aa oxidant—20 mM solution of potassium hexacyanoferrate was added to one of the incubations before dialysis. The cassettes (Slide-A-Lyzer Dialysis Cassettes, Thermo Fisher Scientific, Waltham, MA, USA) were immersed in 50 mM potassium phosphate buffer solution (pH 7.4) for 30 min (dialysis solution was exchanged three times). After dialysis, the samples were transferred from the cassette back to the glass tube, and the residual enzyme activity was assessed using testosterone as a marker substrate (200 μM final concentration). As the NADPH generating system was also dialyzed, it was again added to the incubations to initiate enzyme reaction. […] The samples were analyzed by HPLC.

[6] = combination treatment of apigenin and paclitaxel in vivo; cited from earlier work
[7] = human, CYP3A4 enzyme, pH 7.4, probe nifedipine (200 µM), nifedipine oxidation
[8] = human, CYP3A4 enzyme, pH 7.4, probe nifedipine (200 µM), nifedipine oxidation, kinact/Ki (inactivation efficiency), nifedipine (NIF) as marker substrate, ratio of inactivation rate constant and inhibition constant
[9] = nifedipine (NIF) as marker substrate, ratio of inactivation rate constant and inhibition constant

T1 sequence (P08684 whole entry): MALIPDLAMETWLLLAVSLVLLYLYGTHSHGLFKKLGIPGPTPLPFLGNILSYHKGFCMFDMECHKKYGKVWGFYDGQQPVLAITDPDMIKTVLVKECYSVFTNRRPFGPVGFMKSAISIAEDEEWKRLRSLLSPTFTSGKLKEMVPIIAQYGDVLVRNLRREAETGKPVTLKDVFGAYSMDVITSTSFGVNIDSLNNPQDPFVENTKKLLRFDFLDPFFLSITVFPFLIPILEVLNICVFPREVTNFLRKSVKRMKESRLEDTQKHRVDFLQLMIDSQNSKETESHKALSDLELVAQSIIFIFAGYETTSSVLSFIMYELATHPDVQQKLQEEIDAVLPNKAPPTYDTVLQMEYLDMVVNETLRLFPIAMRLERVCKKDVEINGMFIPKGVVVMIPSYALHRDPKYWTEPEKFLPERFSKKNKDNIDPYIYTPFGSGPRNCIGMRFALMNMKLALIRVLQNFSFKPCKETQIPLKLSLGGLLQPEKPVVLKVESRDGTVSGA

| Structure (SMILES) | IC50 (CYP3A4 [1]) | Ki (CYP3A4 [1]) | kinact (CYP3A4 [1]; [7]) | kinact/KI (CYP3A4 [1]; [8]) | kinact/Ki (inactivation efficiency) (CYP3A4 [1]; [9]) | kinact (CYP3A4 [1]; human, pH 7.4) | kinact/Ki (inactivation efficiency) (CYP3A4 [1]; human, pH 7.4) | kinact/KI (CYP3A4 [1]; human, pH 7.4, kinact/Ki (inactivation efficiency)) | reduction of enzyme activity (CYP3A4 [5]) | inhibition of CYP3A4 (CYP3A4 [2]) | IC50 (CYP3A4 [2]) | Ki (CYP3A4 [2]) | kinact (CYP3A4 [2]) | kinact/Ki (CYP3A4 [2]) | increase in AUC of cerivastatin [3] | AUC and peak serum concentration (Cmax) of nitrofurantoin [4] | oral bioavailability of paclitaxel [6] |
| --- | --- | --- | --- | --- | --- | --- | --- | --- | --- | --- | --- | --- | --- | --- | --- | --- | --- |
| O=C1CC(c2ccccc2)Oc2cc(O)cc(O)c21 (centres unmarked) [pinocembrin, 5,7-dihydroxy-flavanone] | 4.3 ± 1.1 µM | 5.1 ± 1.6 µM | 0.000667 s⁻¹ | ~167 M⁻¹ s⁻¹ | 130 M⁻¹ s⁻¹ | – | – | – | – | statistically significant inhibition | 5 ± 0.6 µM | 1.2 ± 0.3 µM | 0.018 ± 0.001 min⁻¹ | 250 M⁻¹ s⁻¹ | – | – | – |
| CC[C@H]1OC(=O)[C@H](C)[C@@H](O[C@H]2C[C@@](C)(OC)[C@@H](O)[C@H](C)O2)[C@H](C)[C@@H](O[C@@H]2O[C@H](C)C[C@H](N(C)C)[C@H]2O)[C@](C)(O)C[C@@H](C)C(=O)[C@H](C)[C@@H](O)[C@]1(C)O [erythromycin] | – | – | – | – | – | – | – | – | – | – | – | – | – | – | 21% | – | – |
| O=c1cc(-c2ccc(O)cc2)oc2cc(O)cc(O)c12 [apigenin] | – | – | – | – | – | – | – | – | – | statistically significant inhibition | – | – | – | – | – | – | increase in oral bioavailability of paclitaxel |

The next lines start with results.

| IC50 (CYP3A4 [1]) | Ki (CYP3A4 [1]) | kinact (CYP3A4 [1]; [7]) | kinact/KI (CYP3A4 [1]; [8]) | kinact/Ki (inactivation efficiency) (CYP3A4 [1]; [9]) | kinact (CYP3A4 [1]; human, pH 7.4) | kinact/Ki (inactivation efficiency) (CYP3A4 [1]; human, pH 7.4) | kinact/KI (CYP3A4 [1]; human, pH 7.4, kinact/Ki (inactivation efficiency)) | reduction of enzyme activity (CYP3A4 [5]) | Structure (SMILES) | inhibition of CYP3A4 (CYP3A4 [2]) | IC50 (CYP3A4 [2]) | Ki (CYP3A4 [2]) | kinact (CYP3A4 [2]) | kinact/Ki (CYP3A4 [2]) | increase in AUC of cerivastatin [3] | AUC and peak serum concentration (Cmax) of nitrofurantoin [4] | oral bioavailability of paclitaxel [6] |
| --- | --- | --- | --- | --- | --- | --- | --- | --- | --- | --- | --- | --- | --- | --- | --- | --- | --- |
| 2.5 ± 0.6 µM | 2.4 ± 1 µM | – | – | – | 0.00117 s⁻¹ | 483 M⁻¹ s⁻¹ | 500 M⁻¹ s⁻¹ | approximately 99% | O=c1cc(-c2ccccc2)oc2cc(O)cc(O)c12 [chrysin, 5,7-dihydroxy-flavone] | statistically significant inhibition | 0.6 ± 0.5 µM | 0.6 ± 0.3 µM | 0.065 ± 0.005 min⁻¹ | 1800 M⁻¹ s⁻¹ | – | significantly increased | – |
| 7.5 ± 2.7 µM | 12.1 ± 5.6 µM | 0.00167 s⁻¹ | ~167 M⁻¹ s⁻¹ | 130 M⁻¹ s⁻¹ | – | – | – | – | COc1ccc(-c2cc(=O)c3c(O)cc(O)cc3o2)cc1 [acacetin] | statistically significant inhibition | 10.9 ± 0.3 µM | 6 ± 3 µM | 0.036 ± 0.006 min⁻¹ | 100 M⁻¹ s⁻¹ | – | – | – |
